Laboratory results taken from US20140228302A1, “COMPOUNDS, COMPOSITIONS AND METHODS FOR TREATING OR PREVENTING HYPOXIC OR ISCHEMIC INJURY” (FRED HUTCHINSON CANCER RESEARCH CENTER, priority 2010, published 2014).
Converted amounts (≈) assume the structure as drawn. “Also recorded” adds a separate entry of the source. Read-outs that look alike come from different tables or passages of the source. Each block holds one compound with its values, some of them ahead of it.

Tests used:
[1] = Comparative solubility data (Table 1); type: physicochemical
Excerpt: (§1) This allows formulation in aqueous solution at high concentration, which is important for preparing parenteral dosage forms.

[2] = Generation of biologically available sulfide in whole rat blood and inhibition by NAEM; type: in vitro ADME
Method: The chemical nature of biologically available sulfide in blood was probed with the thiol-reactive reagent N-aminoethyl-maleimide (NAEM) which binds to free thiols and perthiols on proteins and blocks them from participating further in thiol-mediated chemical reactions. Biologically available sulfide was generated in blood by adding 1.3 mM bis-N-acetyl-cystine-trisulfide to 2 mL of whole rat blood. Biologically available sulfide was measured by derivatization with mono-bromo-bimane and levels of bis-N-acetyl-cystine-trisulfide in blood were followed by LC/MS/MS.

rat = conditions: cited from earlier work
mammals = conditions: many mammals; cited from earlier work
dog = conditions: cited from earlier work
mouse = conditions: cited from earlier work
[3] = test system: livers of mice, ischemia/reperfusion (I/R) injury; assay: Protection from ischemia/reperfusion-induced liver damage; type: in vivo, C57BL/6 mice; conditions: last 5 min of 45 min occlusion, ALT five hours after reperfusion
Method: C57BL/6 mice were anesthetized with a ketamine/xylazine combination given via intraperitoneal injection. A midline laparotomy was performed to expose the viscera and the stomach and intestines were moved laterally to allow for unimpeded visualization of the liver. A micoaneurysm clip was applied to the hepatic artery and portal vein to create a partial liver ischemia encompassing the medial and left lateral lobes (approximately 70% of the liver). […] The aneurysm clips were removed at 45 minutes to restore hepatic blood flow which was confirmed visually. The abdominal incision was closed using wound clips and animals were recovered in a warmed chamber with 100% oxygen. Five hours after reperfusion, blood was collected by cardiac puncture to measure serum alanine aminotransferase (ALT).

[4] = test system: livers of mice, injury by dGal/LPS; assay: Protection from endotoxin (dGal/LPS)-induced liver damage; type: in vivo, C57BL/6 mice
Method: Male C57BL/6 mice, (22 to 24 g, Charles River Laboratories) were acclimated in a temperature and humidity controlled environment for 1-3 days prior to commencement of the experimental procedures. All cages were placed on water heating pads set at 30° C. Liver injury was caused by injecting mice intraperitoneally with 800 mg/kg d-Galactosamine (dGal), followed 30 min later by 100 μg/kg lipopolysaccharide (LPS) (FIG. 4) or with 1000 mg/kg dGal, followed 30 min later by 120 μg/kg LPS (FIG. 5). Bis-N-acetyl-cystine-trisulfide at 20 mg/kg (FIG. 4) or 40 and 60 mg/kg (FIG. 5), or vehicle were injected intraperitoneally 30 min later. Blood was collected by cardiac puncture under isoflurane anesthesia five hours after LPS injection. Serum was prepared and markers of liver injury, alanine aminotransferase (ALT) and aspartate aminotransferase (AST) measured.

[5] = Comparative vehicle data (Table 2); type: physicochemical
Excerpt: as §1

[6] = Free sulfide in blood measured with sulfide-specific electrode in vena cava; type: in vivo, CD rats; conditions: rat, 20 mg/kg IV over 1 min, monitored 30 min
Excerpt: Male CD rats (350-450 g, Charles River Laboratories) were anesthetized by IV pentobarbital injection and the right jugular vein carefully exposed and dissected away from the surrounding tissue. An amperometric hydrogen sulfide sensor (World Precision Instruments, Sarasota, Fla., Cat. #ISO-H2S-2) was inserted into the jugular and advanced into the vena cava. Sensor current was monitored using a Powerlab 8/30 (ADInstruments, Colorado Springs, Colo.). Once a stable baseline current was attained, the animals received either vehicle (pH matched saline) or bis-N-acetyl-cystine-trisulfide (20 mg/kg) administered over 1 min via a left femoral vein catheter, and sensor current was monitored over 30 min. Changes in current were calibrated against an IK-1001 standard curve generated with the sensor in deoxygenated 50 mM HEPES, 150 mM NaCl, 1 mM DTPA at 37° C. and pH 7.4.

[7] = Maximum tolerated dose, intravenous injection; conditions: mouse, in vivo; mice, intravenous injections
Excerpt: The absence of free sulfide is reflected in the low toxicity of the sulfide-releasing compounds.

[8] = Stability of the dosing solution; type: physicochemical; conditions: 30 mg/mL dosing solution
Method: In one more exemplary embodiment of the methods of making the pharmaceutical compositions of the invention, a dosing solution of bis-N-acetyl-cystine-trisulfide at 30 mg/mL is prepared by weighing the desired amount of solid bis-N-acetyl-cystine-trisulfide into a clear glass vial and chilling the vial to −20° C. The solvent is prepared by chilling a suitable amount of a mixture of 1 volumes of 0.5N NaOH in saline and 2 volumes of above vehicle solution to between 0° C. and 4° C. One mL of this solvent is added to the vial per 30 mg of bis-N-acetyl-cystine-trisulfide contained and the resulting suspension mixed immediately until the solid is fully dissolved. This dosing solution of bis-N-acetyl-cystine-trisulfide is stable for at least 1.5 hours at room temperature and for at least 24 hours when frozen at −20° C. The dosing solution is warmed to room temperature prior to intravenous injection.
Method: Vehicle solution was prepared by mixing 1 volume of solution B, 4 volumes of solution A, and 36 volumes of saline. The pH of the resulting vehicle solution is about 6. To prepare a bis-N-acetyl-cysteine-trisulfide dosing solution at a concentration of 30 mg/ml and about pH 6, the appropriate amount of bis-N-acetyl-cystine-trisulfide was weighed into a clear glass vial and cooled to −20° C. Solutions B and A were mixed at a 1:2 volume ratio, vortexed, and cooled to 4° C. on ice. […]

[9] = Pharmacokinetics of biologically available blood sulfide and plasma thiosulfate after intravenous administration; type: in vivo, Sprague Dawley rats; conditions: rat, IV bolus 16 or 32 mg/kg
Method: Pharmacokinetic experiments were conducted with groups of two to four animals consisting of 9-10 week old, male Sprague Dawley rats, 276-300 grams (Charles River Laboratories, Wilmington, Mass.) with a jugular vein catheter and a femoral vein catheter. Animals were allowed to acclimate in a temperature and humidity controlled environment for 1-3 days prior to the commencement of experimental procedures. Food and water were provided ad libitum.
A baseline blood sample (˜0.4 mL) was collected from each rat through the jugular vein cannula into a heparin-coated syringe (1 mL volume) fitted with a 23G Luer stub adapter. After sampling, the blood volume was replenished by slowly injecting 0.4 mL of a solution of 50 u/mL heparin in saline through the jugular vein cannula.

[10] = 17% HPBCD, aqueous with cosolvent or surfactant or cyclodextrin, read-out: Solubility 17% HPBCD
[11] = 20% PEG400, aqueous with cosolvent or surfactant or cyclodextrin, read-out: Solubility 20% PEG400
[12] = water, read-out: Solubility Water
[13] = rat blood pretreated with 20 mM NAEM for 30 min

Structure (SMILES): NCCN1C(=O)C=CC1=O [NAEM, N-aminoethyl-maleimide]
Time until consumed in blood ([2]; 20 mM NAEM, preincubation with rat blood): ≤ 1 min | Effect on consumption of bis-N-acetyl-cystine-trisulfide [2, 13]: reduced consumption | Effect on production of biologically available sulfide [2, 13]: almost completely blocked | Effect on production of biologically available sulfide ([2]; rat blood pretreated with 20 mM NAEM for 30 min, listed as N-aminoethyl-maleimide (NAEM)): reduces the generation of biologically available sulfide

Structure (SMILES): CC(=O)N[C@@H](CS)C(=O)O [N-acetyl-cysteine]
LD50 IV (rat): 1,140 mg/kg | intravenous LD50 (mammals): ≥ 300 mg/kg | LD50 IV (dog): 700 mg/kg | LD50 IV (mouse): 3,800 mg/kg

Structure (SMILES): N[C@@H](CSSSC[C@H](N)C(=O)O)C(=O)O
Solubility in words ([1]; water, 90% PEG400, 45% HPBCD, 45% Captisol, 2% Tween 80, 25% cremophor): Not soluble in water, 90% PEG400, 45% HPBCD, 45% Captisol, 2% Tween 80, 25% cremophor

Structure (SMILES): CC(=O)N[C@@H](CSSSC[C@H](NC(C)=O)C(=O)O)C(=O)O [bis-N-acetyl-cystine-trisulfide, (R,R′)-3,3′-trithiobis-2-acetamidopropanoic acid]
Liver injury (serum ALT and AST) ([4]; 20 mg/kg IP bolus 30 min after LPS, 800 mg/kg dGal, 100 μg/kg LPS, vs vehicle): reduced liver injury | Endotoxin-induced liver injury (ALT, AST) ([4]; 20, 40 and 60 mg/kg IP, blood five hours after LPS (FIGS. 4 and 5)): protected from endotoxin-induced liver injury | Liver injury (serum ALT) ([4]; 40 and 60 mg/kg IP bolus 30 min after LPS, 1000 mg/kg dGal, 120 μg/kg LPS, vs vehicle): reduced liver injury | Preferred Vehicle [5]: aqueous | Free sulfide in blood [6]: No free sulfide was detectable; also recorded: does not lead to any measurable increase | MTD [7]: ~500 mg/kg | Water solubility compared to other polysulfides ([1]; water): unexpectedly high water solubility | Liver ischemia/reperfusion injury (ALT) ([3]; intravenous bolus 5, 20 or 60 mg/kg): protection of the livers; also recorded: protected the liver from ischemia/reperfusion injury | Stability of dosing solution at room temperature ([8]; about pH 6, room temperature): at least 1.5 hours | Stability of dosing solution frozen ([8]; frozen at −20° C.): at least 24 hours | Time until consumed in blood ([2]; 1.3 mM in 2 mL whole rat blood, LC/MS/MS): ≤ 5 min | Generation of biologically available sulfide in blood ([2]; 1.3 mM in whole rat blood, mono-bromo-bimane derivatization): generating biologically available sulfide | Plasma thiosulfate ([9]; ion chromatography): paralleled blood levels of biologically available sulfide; also recorded: elevation of plasma thiosulfate | Biologically available sulfide in blood ([9]; mono-bromo-bimane derivatization): dose-dependent elevation

Structure (SMILES): CC(=O)N[C@@H](CSSSC[C@H](NC(C)=O)C(=O)O)C(=O)O [drawing 49]
solubility [1, 12]: > 40000 µg/mL

Structure (SMILES): C=CCSSCC=C [Di-allyl di-sulfide]
Preferred Vehicle [5]: 40% HPBCD/0.1% citric acid

More lines, main results first:

solubility [1, 10]: 6600 µg/mL (≈ 22400 µM) | solubility [1, 11]: 230 µg/mL (≈ 781 µM) | solubility [1, 12]: 150 µg/mL (≈ 509 µM)
Structure (SMILES): OCC(O)CSSSSCc1ccccc1 (stereo not shown)

solubility [1, 12]: > 80000 µg/mL
Structure (SMILES): CS(=O)(=O)N[C@@H](CSSSC[C@H](NS(C)(=O)=O)C(=O)O)C(=O)O [drawing 50]

solubility ([1]; aqueous with cosolvent or surfactant or cyclodextrin, 45% HPBCD (stated in the cell of the 17% HPBCD column), read-out: Solubility 45% HPBCD): > 20000 µg/mL | Solubility Water ([1]; water): poor
Structure (SMILES): O=C(O)CCSSSCCC(=O)O

solubility [1, 11]: 310 µg/mL (≈ 1060 µM) | solubility [1, 12]: 220 µg/mL (≈ 750 µM)
Structure (SMILES): c1ccc(CCSSSCc2cccnc2)cc1

solubility [1, 10]: > 6000 µg/mL | solubility [1, 11]: 110 µg/mL (≈ 416 µM) | solubility [1, 12]: 37 µg/mL (≈ 140 µM)
Structure (SMILES): OCCSSSSCc1ccccc1

Water solubility compared to other polysulfides ([1]; water): unexpectedly high water solubility
Structure (SMILES): CS(=O)(=O)N[C@@H](CSSSC[C@H](NS(C)(=O)=O)C(=O)O)C(=O)O [bis-N-methylsulfonyl-cystine-trisulfide, (R,R′)-3,3′-trithiobis-2-(methylsulfonylamido)propanoic acid]
Liver ischemia/reperfusion injury (ALT) ([3]; intravenous bolus 2, 5 or 20 mg/kg): protected the liver from ischemia/reperfusion injury | Liver ischemia/reperfusion injury (ALT) ([3]; intravenous bolus 2, 5 or 20 mg/kg, listed as bis-N-methylsulfonamide-cystine-trisulfide): protection of the livers

solubility [1, 10]: 18000 µg/mL (≈ 54300 µM) | Solubility Water ([1]; water): poor
Structure (SMILES): CC(=O)N[C@@H](CSSSCCc1ccccc1)C(=O)O

solubility [1, 11]: 240 µg/mL (≈ 724 µM) | solubility [1, 12]: 100 µg/mL (≈ 302 µM)
Structure (SMILES): COC(=O)[C@H](CSSSCc1ccccc1)NC(C)=O
